For assay [1], the target named is T1, Inhibitor of nuclear factor kappa-B kinase subunit epsilon (Homo sapiens) (UniProt Q14164).
T1 sequence (whole entry): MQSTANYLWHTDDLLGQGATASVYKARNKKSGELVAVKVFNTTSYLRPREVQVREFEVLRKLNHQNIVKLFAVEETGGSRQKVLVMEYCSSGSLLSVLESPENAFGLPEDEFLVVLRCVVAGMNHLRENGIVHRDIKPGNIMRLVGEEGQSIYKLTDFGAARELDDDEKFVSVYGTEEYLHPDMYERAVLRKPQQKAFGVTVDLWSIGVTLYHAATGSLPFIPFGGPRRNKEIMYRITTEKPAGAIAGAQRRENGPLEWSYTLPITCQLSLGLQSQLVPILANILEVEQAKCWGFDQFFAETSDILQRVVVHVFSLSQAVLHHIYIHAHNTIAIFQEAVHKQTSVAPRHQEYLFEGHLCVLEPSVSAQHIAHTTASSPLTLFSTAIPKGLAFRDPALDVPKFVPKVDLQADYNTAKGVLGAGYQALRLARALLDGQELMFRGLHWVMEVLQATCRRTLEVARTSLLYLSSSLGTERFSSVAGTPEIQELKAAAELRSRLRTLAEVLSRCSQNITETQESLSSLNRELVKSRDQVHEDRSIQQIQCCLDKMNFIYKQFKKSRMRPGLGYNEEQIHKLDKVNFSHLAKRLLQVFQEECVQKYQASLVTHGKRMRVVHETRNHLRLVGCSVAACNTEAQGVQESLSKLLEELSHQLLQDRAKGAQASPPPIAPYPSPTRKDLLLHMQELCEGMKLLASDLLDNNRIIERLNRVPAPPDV
Briefly: Inhibition of human recombinant IKKe at 15 nM in presence of ATP by radiometric assay relative to control.

In assay [2] the target is T2, Ephrin type-A receptor 8 (Homo sapiens) (UniProt P29322).
T2 sequence (whole entry): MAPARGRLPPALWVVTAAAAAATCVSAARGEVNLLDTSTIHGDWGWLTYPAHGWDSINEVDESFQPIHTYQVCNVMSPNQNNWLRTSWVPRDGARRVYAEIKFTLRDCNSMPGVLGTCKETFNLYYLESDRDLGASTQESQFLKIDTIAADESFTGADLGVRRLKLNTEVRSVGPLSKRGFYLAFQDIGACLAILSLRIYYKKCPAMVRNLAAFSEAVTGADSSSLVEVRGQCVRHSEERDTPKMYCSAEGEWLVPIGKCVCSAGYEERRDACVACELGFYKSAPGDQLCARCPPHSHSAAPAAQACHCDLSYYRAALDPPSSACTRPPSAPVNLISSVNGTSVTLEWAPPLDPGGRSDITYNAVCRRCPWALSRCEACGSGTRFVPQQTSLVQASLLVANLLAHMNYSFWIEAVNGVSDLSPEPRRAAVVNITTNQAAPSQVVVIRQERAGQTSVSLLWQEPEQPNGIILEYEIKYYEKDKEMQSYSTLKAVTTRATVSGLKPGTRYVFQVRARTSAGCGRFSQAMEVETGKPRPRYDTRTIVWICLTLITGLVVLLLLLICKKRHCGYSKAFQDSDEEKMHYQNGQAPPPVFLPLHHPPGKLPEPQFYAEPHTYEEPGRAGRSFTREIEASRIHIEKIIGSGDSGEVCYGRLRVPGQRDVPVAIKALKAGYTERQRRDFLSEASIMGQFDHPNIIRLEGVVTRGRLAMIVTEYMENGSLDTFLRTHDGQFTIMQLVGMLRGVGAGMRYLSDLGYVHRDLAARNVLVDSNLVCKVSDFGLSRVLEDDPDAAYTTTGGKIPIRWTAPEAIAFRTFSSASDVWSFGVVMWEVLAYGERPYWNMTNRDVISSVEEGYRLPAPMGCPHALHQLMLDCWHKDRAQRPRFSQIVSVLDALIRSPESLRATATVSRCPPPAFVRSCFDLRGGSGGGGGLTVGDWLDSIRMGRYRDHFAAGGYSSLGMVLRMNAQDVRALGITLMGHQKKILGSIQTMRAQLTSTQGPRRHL
Briefly: Inhibition of human recombinant EphA8 at 15 nM related to control ULK1.

The target of assay [3] is Serine/threonine-protein kinase PRP4 homolog (Homo sapiens) (UniProt Q13523). In words: Inhibition of human recombinant PRP4 at 15 nM related to control ULK1.
Assay [4] deals with Cyclin-dependent kinase 2 (Homo sapiens) (UniProt P24941). In words: Inhibition of human recombinant CDK2 at 40 nM in presence of ATP by radiometric assay relative to control.
Assay [5] addresses T3, Serine/threonine-protein kinase 17B (Homo sapiens) (UniProt O94768).
T3 sequence (whole entry): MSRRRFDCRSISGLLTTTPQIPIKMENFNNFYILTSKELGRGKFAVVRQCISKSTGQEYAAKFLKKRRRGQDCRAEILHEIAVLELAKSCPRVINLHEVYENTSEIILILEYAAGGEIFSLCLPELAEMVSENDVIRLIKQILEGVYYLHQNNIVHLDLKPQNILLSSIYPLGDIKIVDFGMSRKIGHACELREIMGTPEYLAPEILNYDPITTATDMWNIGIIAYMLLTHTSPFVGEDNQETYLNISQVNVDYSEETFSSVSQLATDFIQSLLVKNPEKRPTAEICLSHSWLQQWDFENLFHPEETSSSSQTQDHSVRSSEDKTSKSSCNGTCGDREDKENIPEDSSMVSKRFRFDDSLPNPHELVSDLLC
In words: Inhibition of human recombinant DRAK2 at 40 nM in presence of ATP by radiometric assay relative to control.

The target of assay [6] is Serine/threonine-protein kinase PRP4 homolog (Homo sapiens) (UniProt Q13523). In words: Inhibition of human recombinant PRP4 at 40 nM related to control ULK1.
Assay [7] deals with Epidermal growth factor receptor (Homo sapiens) (UniProt P00533). Briefly: Inhibition of human recombinant EGFR at 500 nM in presence of ATP by radiometric assay relative to control.
Assay [8] concerns the target Dual specificity mitogen-activated protein kinase kinase 1 (Homo sapiens) (UniProt Q02750). In words: Inhibition of human recombinant MAP2K1 at 500 nM related to control ULK1.
Assay [9] deals with Activin receptor type-2A (Homo sapiens) (UniProt P27037). Briefly: Inhibition of human recombinant ACTR2 at 500 nM related to control ULK1.

Usually inhibition stands for how much of the control response was suppressed. On to `CC(C)[C@H](NC(=O)c1cc(-c2cnn3cc(-c4ccc(OCCN5CCCCC5)cc4)cnc23)cs1)C(F)(F)F`, for which, in assay [1], the inhibition is 75%. In addition, the fold change (FC) in assay [2] was determined as 0; in assay [3], 0.07.

As for `O=C(N[C@@H](C1CC1)C(F)(F)F)c1cc(-c2cnn3cc(-c4ccc(F)cc4)cnc23)cs1`, the figures for the inhibition in [4] and in assay [5] were 29% and 39%, respectively. Besides, the fold change (FC) in [6] stood at 0.08.

In the case of `CNC(=O)c1ccccc1Oc1nc(Nc2cc(OC)c(OC)c(OC)c2)ncc1Br`, the inhibition in assay [7] was 3%. In addition, the fold change (FC) in assay [8] stood at 0; in [9], 0.04.

These data come from ChEMBL document CHEMBL5653631, “A Potent and Selective ULK1 Inhibitor Suppresses Autophagy and Sensitizes Cancer Cells to Nutrient Stress” (iScience, 2018).
